Assay [1] concerns human platelet rich plasma. The assay is described as follows: Inhibition of ADP-stimulated platelet aggregation in fresh human platelet rich plasma (Born aggregometer). In kind it is cell-based. Conditions: for Inhibition of platelet aggregation x PGE1: relative potency with respect to PGE1, 1 minute incubation at 37°C, ADP 2 to 5 µM; for activity (anti-platelet-aggregation) times that of PGE1: summary values given in the description. The method, then: Aggregation of platelets in […] of fresh human platelet. rich plasma (PRP) was monitored in a Born aggregometer.
The compound to be tested was added to the PRP at the desired concentration, and the resulting mixture incubated at 37°C for 1 minute after which platelet aggregation was stimulated by the addition of adenosine diphosphate (ADR) in a concentration just causing maximal aggregation (2 to 5 µM).
The anti-aggregatory effect of the compound was assessed by measuring the percentage inhibition of platelet aggregation in the presence of the compound as compared with when it was completely absent.

A further assay has as its system blood platelets. The experiment in a line: Aggregation tests on rabbits (combination with phosphodiesterase inhibitor). It counts as in vivo. As to conditions: dipyridamole combined with the (5S,3R) isomer.

The IC50 is the point on the concentration scale where inhibition reaches its midpoint.

Turning to `O=C(O)CCCCCC[C@@H]1C(=O)NC(=O)N1CC[C@@H](O)C1CCCCC1` [[(5R),(3R)], (5R)-5-(6-carboxyhexyl)-1-[(3R) - 3-cyclohexyl 3-hydroxypropyl] hydantoin], the “Inhibition of platelet aggregation x PGE1” value (“Inhibition” below) is recorded as 0.05 x PGE1 in assay [1] (first of two experiments) and 0.04 x PGE1 in assay [1] (second of two experiments). Besides, the “activity (anti-platelet-aggregation) times that of PGE1” value (“activity … of PGE1” below) in assay [1] is on record as 0.05 times that of PGE1.

On to `O=C(O)CCCCCC[C@@H]1C(=O)NC(=O)N1CC[C@H](O)C1CCCCC1` [[(5R),(3S)], (5R)-5-(6-carboxyhexyl)-1-[(3S)-3-cyclohexyl-3-hydroxypropyl]hydantoin], for which the 50% inhibitory concentration (IC50) in assay [1] (inhibition of platelet aggregation, human PRP) was above 2 µg/mL. Further, the “Inhibition” value in assay [1] (first of two experiments) is “inactive”. The “activity … of PGE1” value in assay [1] is “inactive”.

In the case of `O=C(O)CCCCCC[C@H]1C(=O)NC(=O)N1CC[C@@H](O)C1CCCCC1` [[(5S),(3R)], (5S)-5-(6-carboxyhexyl)-1-[(3R)-3-cyclohexyl-3-hydroxypropyl] hydantoin], in assay [1] (compared with racemate of (5S,3R) and (5R,3S) isomers), the “anti-platelet-aggregation inhibitory effect relative to the activity of the corresponding racemate” value is recorded as “at least twice”. Besides, the “Inhibition” value is given as 83 x PGE1 in assay [1] (first of two experiments) and 47 x PGE1 in assay [1] (second of two experiments). Also, in assay [1], the “activity … of PGE1” value is listed as ~40 times that of PGE1.

On to `O=C(O)CCCCCC[C@H]1C(=O)NC(=O)N1CC[C@H](O)C1CCCCC1` [[(5S),(3S)], (5S)-5-(6-carboxyhexyl)-1-[(3S)-3-cyclohexyl-3-hydroxypropyl]hydantoin], for which the “Inhibition” value in assay [1] (first of two experiments) is on record as 0.07 x PGE1; in assay [1] (second of two experiments), 0.05 x PGE1. Moreover, the “activity … of PGE1” value in assay [1] is on record as 0.06 times that of PGE1.

For the molecule `OCCN(CCO)c1nc(N2CCCCC2)c2nc(N(CCO)CCO)nc(N3CCCCC3)c2n1` [dipyridamole, 2,2',2",2'"-(4,8-dipiperidinopy-rimido [5,4-d]pyrimidine-2,6-diyldinitrilo)tetraethanol, reference compound], the “potentiation of the anti-aggregatory effect of the active compound” value is “potentation of the anti-aggregatory effect” in assay [1] (dipyridamole combined with the (5S,3R) isomer, human platelet rich plasma) and “potentation of the anti-aggregatory effect” with blood platelets.

These data come from patent publication EP0019223A1, “Optically active hydantoin derivatives, their synthesis, pharmaceutical formulations containing them, and intermediates” (THE WELLCOME FOUNDATION LIMITED, priority 1979, dated 1980).
